From the NIST ThermoML archive (doi:10.1021/je0340248)

Experiment: xn = mol fraction of the nth substance listed
Settings: 101 kPa, Liquid

OCCOCCO [diethylene glycol] + CCOC(C)=O
Settings	mass density, 298.15 K [kg/m3]	mass density, 303.15 K [kg/m3]	mass density, 308.15 K [kg/m3]	mass density, 313.15 K [kg/m3]	speed of sound, 298.15 K [m/s]	speed of sound, 308.15 K [m/s]	viscosity, 298.15 K [mPa·s]	viscosity, 308.15 K [mPa·s]
x2 = 0.0441	1103.89	1100.06	1096.4	1092.83	1557	1527	26.54	14.6
x2 = 0.1491	1081.32	1077.52	1073.43	1069.24	1501	1467	19.33	10.14
x2 = 0.2504	1059.83	1055.84	1051.57	1047.06	1444	1410	13.79	7.076
x2 = 0.3491	1039	1034.73	1030.34	1025.66	1393	1358	9.631	4.946
x2 = 0.4487	1017.94	1013.34	1008.79	1004.01	1346	1311	6.504	3.42
x2 = 0.5011	1006.8	1002.03	997.36	992.53	1322	1287	5.226	2.808
x2 = 0.5485	996.65	991.74	986.94	982.07	1301	1267	4.257	2.345
x2 = 0.6492	974.85	969.64	964.5	959.48	1261	1226	2.692	1.591
x2 = 0.7505	952.44	946.98	941.47	936.2	1223	1188	1.645	1.068
x2 = 0.8492	930.05	924.36	918.52	912.88	1189	1151	0.988	0.719
x2 = 0.9445	907.81	901.89	895.89	889.73	1157	1116	0.587	0.487

OCCOCCO [diethylene glycol] + COC(C)=O
Settings	mass density, 298.15 K [kg/m3]	mass density, 303.15 K [kg/m3]	mass density, 308.15 K [kg/m3]	mass density, 313.15 K [kg/m3]	speed of sound, 298.15 K [m/s]	speed of sound, 308.15 K [m/s]	viscosity, 298.15 K [mPa·s]	viscosity, 308.15 K [mPa·s]
x2 = 0.0406	1107.83	1103.83	1100.41	1097.07	1562	1533	26.42	14.2
x2 = 0.1512	1091.77	1087.47	1083.89	1080.13	1513	1485	18.27	8.812
x2 = 0.2516	1076.55	1071.84	1068.15	1063.99	1472	1441	12.72	5.78
x2 = 0.3488	1061.26	1056.15	1052.35	1047.79	1431	1398	8.747	3.883
x2 = 0.44	1046.36	1040.88	1036.96	1032.05	1392	1357	6.023	2.698
x2 = 0.4926	1037.46	1031.79	1027.79	1022.69	1370	1334	4.811	2.196
x2 = 0.5504	1027.35	1021.49	1017.4	1012.1	1345	1308	3.728	1.757
x2 = 0.6509	1008.76	1002.63	998.36	992.71	1301	1260	2.345	1.203
x2 = 0.751	988.53	982.17	977.74	971.76	1258	1213	1.44	0.834
x2 = 0.8504	966.18	959.59	955.04	948.73	1214	1168	0.866	0.586
x2 = 0.9429	942.76	935.89	931.35	924.7	1174	1127	0.527	0.426

COC(C)=O [methyl ethanoate] + OCCO
Settings	mass density, 298.15 K [kg/m3]	mass density, 303.15 K [kg/m3]	mass density, 308.15 K [kg/m3]	mass density, 313.15 K [kg/m3]	speed of sound, 298.15 K [m/s]	speed of sound, 308.15 K [m/s]	viscosity, 298.15 K [mPa·s]	viscosity, 308.15 K [mPa·s]
x1 = 0.0444	1100.26	1096.48	1092.85	1089.11	1627	1600	11.86	8.678
x1 = 0.1488	1077.91	1073.64	1070.12	1065.97	1550	1521	7.177	5.649
x1 = 0.2505	1056.96	1052.6	1049.33	1045.05	1482	1452	4.535	3.788
x1 = 0.3485	1037.61	1033.23	1030.22	1025.91	1424	1391	2.996	2.623
x1 = 0.4411	1020.06	1015.63	1012.78	1008.44	1374	1338	2.078	1.882
x1 = 0.4856	1011.89	1007.39	1004.56	1000.19	1351	1315	1.758	1.614
x1 = 0.5507	1000.2	995.55	992.71	988.26	1320	1282	1.39	1.296
x1 = 0.6503	982.94	977.9	974.92	970.21	1276	1237	0.994	0.941
x1 = 0.7489	966.49	960.93	957.65	952.55	1237	1196	0.734	0.697
x1 = 0.8498	950.22	944.03	940.33	934.64	1199	1157	0.554	0.522
x1 = 0.9453	935.24	928.45	924.26	917.85	1167	1122	0.435	0.404

OCCOCCOCCO [triethylene glycol] + CCCCOC(C)=O
Settings	mass density, 298.15 K [kg/m3]	mass density, 303.15 K [kg/m3]	mass density, 308.15 K [kg/m3]	mass density, 313.15 K [kg/m3]	speed of sound, 298.15 K [m/s]	speed of sound, 308.15 K [m/s]	viscosity, 298.15 K [mPa·s]	viscosity, 308.15 K [mPa·s]
x2 = 0.0452	1108.89	1105.14	1101.13	1098.6	1586	1559	31.2	18.96
x2 = 0.1515	1083.49	1079.63	1075.41	1072.59	1524	1498	24.06	14.16
x2 = 0.2488	1060.06	1056.08	1051.65	1048.53	1470	1446	18.29	10.62
x2 = 0.3493	1035.73	1031.63	1026.98	1023.57	1420	1395	13.28	7.731
x2 = 0.4464	1012.14	1007.94	1003.07	999.41	1375	1350	9.402	5.575
x2 = 0.4953	1000.24	995.98	991.02	987.24	1355	1329	7.798	4.694
x2 = 0.5495	987.03	982.72	977.64	973.75	1334	1307	6.273	3.856
x2 = 0.6493	962.66	958.25	952.97	948.88	1298	1267	4.084	2.642
x2 = 0.7488	938.29	933.77	928.31	924.03	1265	1232	2.566	1.776
x2 = 0.8515	913.02	908.37	902.74	898.24	1233	1197	1.528	1.153
x2 = 0.9421	890.6	885.8	880.04	875.29	1207	1168	0.936	0.774
